# Experimental data from patent US6264974A, “Buccal and sublingual administration of physostigmine” (priority 1998, dated 2001).
# “Also recorded” adds a separate entry of the source.
# Test: Intravenous and buccal pharmacokinetics of Physostigmine in rats (plasma levels by HPLC with fluorimetric detector)
# Format: in vivo, male Lewis rats
# Details: rat plasma, 200 μg/kg, Physostigmine hemisulfate in normal saline
# Protocol: Lewis Rats were used to evaluate the buccal/sublingual delivery of Physostigmine. The Physostigmine drug concentration in rat plasma was determined using a conventional high pressure liquid chromatography analytical procedure which measures drug concentration by fluorimetric detector.
# To determine whether Physostigmine would be absorbed by mucosa and produce a sustained plasma level, two separate groups of male Lewis rats, were administered Physostigmine hemisulfate, a salt of Physostigmine, intravenously or buccally in normal saline. The rats weighed approximately 300 g and were fasted overnight prior to dosing. All rats were anesthetized with pentobarbital (50 mg/kg) prior to dosing. The jugular vein was cannulated and attached to a syringe through 3-way stopcock for blood collections. Blood samples (1 ml) were withdrawn through the jugular cannula and replaced with an equal volume of fresh blood (37 degrees C) from separate blood donor rats after each sampling as a function of time. […]
# The terminal decay rate constant (k) and the terminal half-life (t1/2) after intravenous administration was calculated by linear regression of the terminal portion of the individual sample In Cp (plasma drug concentration) versus time plot of FIG. 1.
structure (smiles),measurement,setting,value
"CNC(=O)Oc1ccc2c(c1)[C@]1(C)CCN(C)[C@@H]1N2C [Physostigmine, 1,2,3,3a,8,8a-hexahydro-1,3a,8-trimethylpyrrolo[2,3-b]indol-5-ol methylcarbamate]",half-life,"0.2 mg/kg, intravenous, FIG. 1, read-out: plasma half-life (terminal half-life, t1/2)",25 min
same,plasma concentration vs. time profile,"buccal, esophagus ligated, over eight hours (t1/2 could not be determined), FIG. 2",did not decay for the period of the experiment; also recorded: highly sustained
